Reference: patent US6683027B2, “Herbicidal mixtures” (BASF Aktienegesellschaft, priority 2000, dated 2004)

What was measured:
Assay type in all cases: in vivo
Alopecurus myosuroides [1] = assay: greenhouse pre-emergence trial, percent damage vs untreated control 21 days after treatment; conditions: ALOMY
Lamium purpureum [2] = assay: as above; conditions: 3.75 g/ha, LAMPU, Example 1A
Lolium perenne [3] = assay: as above; conditions: 3.75 g/ha, LOLPE
Setaria viridis [4] = assay: as above; conditions: SETVI, Example 1A
Stellaria media [5] = assay: as above; conditions: STEME
Veronica persica [6] = assay: as above; conditions: VERPE
Galium aparine [7] = assay: as above; conditions: GALAP
Alopecurus myosuroides [8] = assay: greenhouse post-emergence trial, percent damage vs untreated control 21 days after treatment; conditions: ALOMY
Experimental: (§1) The trials are carried out under greenhouse conditions in pre- and post-emergence applications. The plant seeds are sown in pots containing a loamy sand soil (0.5 l). The herbicides are applied as single treatments, or in a combination comprising a compound of formula I and compound selected from group (2) as defined above, before or after emergence of weeds and crop. The herbicidal performance is assessed as percent damage in comparison to the untreated control plants. The assessment is done 21 days after the treatment. Wheat and barley are treated at the 3-4 leaf stage, the broad-leaf weeds at the 2-4 leaf stage and annual grasses at the 2-3 leaf stage.

Apera spica-venti = assay: as above; conditions: APESV
Experimental: as §1

Galium aparine [9] = assay: as above; conditions: GALAP
Experimental: as §1

Lamium purpureum [10] = assay: as above; conditions: LAMPU
Experimental: as §1

Lolium perenne [11] = assay: as above; conditions: LOLPE
Experimental: as §1

Matricaria inodora = assay: as above; conditions: MATIN
Experimental: as §1

Papaver rhoeas = assay: as above; conditions: PAPRH, Example 1B
Experimental: as §1

Setaria viridis [12] = assay: as above; conditions: SETVI
Experimental: as §1

Stellaria media [13] = assay: as above; conditions: STEME
Experimental: as §1

Veronica persica [14] = assay: as above; conditions: 3.75 g/ha, VERPE, Example 1B
Experimental: as §1

## FC(F)(F)c1ccc(-c2nccc(Oc3cccc(C(F)(F)F)c3)n2)cc1 [Compound A, 4-(3-trifluoromethylphenoxy)-2-(4-trifluoromethylphenyl)-pyrimidine]
Alopecurus myosuroides [1]; 3.75 g/ha, Example 1A
  Compound A alone (% control): 0%
Alopecurus myosuroides [1]; 3.75 g/ha, Example 3
  Compound A alone (% control): 0%
Alopecurus myosuroides [1]; 7.5 g/ha, Example 1A
  Compound A alone (% control): 5%
Alopecurus myosuroides [1]; 7.5 g/ha, Example 3
  Compound A alone (% control): 0%
Lamium purpureum [2]
  Compound A alone (% control): 10%
Lolium perenne [3]; Example 1A
  Compound A alone (% control): 5%
Lolium perenne [3]; Example 2
  Compound A alone (% control): 15%
Setaria viridis [4]; 3.75 g/ha
  Compound A alone (% control): 0%
Setaria viridis [4]; 7.5 g/ha
  Compound A alone (% control): 35%
Stellaria media [5]; 3.75 g/ha, Example 1A
  Compound A alone (% control): 0%
Stellaria media [5]; 7.5 g/ha, Example 1A
  Compound A alone (% control): 10%
Stellaria media [5]; 7.5 g/ha, Example 2
  Compound A alone (% control): 5%
Stellaria media [5]; 15 g/ha, Example 1A
  Compound A alone (% control): 60%
Veronica persica [6]; 3.75 g/ha, Example 1A
  Compound A alone (% control): 13%
Veronica persica [6]; 3.75 g/ha, Example 2
  Compound A alone (% control): 0%
Veronica persica [6]; 7.5 g/ha, Example 1A
  Compound A alone (% control): 33%
Veronica persica [6]; 7.5 g/ha, Example 2
  Compound A alone (% control): 23%
Veronica persica [6]; 15 g/ha, Example 2
  Compound A alone (% control): 60%
Galium aparine [7]; 3.75 g/ha, Example 1A
  Compound A alone (% control): 0%
Galium aparine [7]; 3.75 g/ha, Example 2
  Compound A alone (% control): 0%
Galium aparine [7]; 7.5 g/ha, Example 2
  Compound A alone (% control): 0%
Galium aparine [7]; 15 g/ha, Example 2
  Compound A alone (% control): 10%
Galium aparine [7]; 15 g/ha, Example 3
  Compound A alone (% control): 0%
Galium aparine [7]; 30 g/ha, Example 3
  Compound A alone (% control): 0%
Galium aparine [7]; 60 g/ha, Example 3
  Compound A alone (% control): 10%
Alopecurus myosuroides [8]; 3.75 g/ha, Example 1B
  Compound A alone (% control): 10%
Alopecurus myosuroides [8]; 3.75 g/ha, Example 12
  Compound A alone (% control): 0%
Alopecurus myosuroides [8]; 3.75 g/ha, Example 13
  Compound A alone (% control): 3%
Alopecurus myosuroides [8]; 7.5 g/ha, Example 1B
  Compound A alone (% control): 28%
Alopecurus myosuroides [8]; 7.5 g/ha, Example 4
  Compound A alone (% control): 23%
Alopecurus myosuroides [8]; 7.5 g/ha, Example 5
  Compound A alone (% control): 3%
Alopecurus myosuroides [8]; 7.5 g/ha, Example 13
  Compound A alone (% control): 5%
Alopecurus myosuroides [8]; 15 g/ha, Example 1B
  Compound A alone (% control): 45%
Alopecurus myosuroides [8]; 15 g/ha, Example 4
  Compound A alone (% control): 28%
Alopecurus myosuroides [8]; 15 g/ha, Example 5
  Compound A alone (% control): 8%
Alopecurus myosuroides [8]; 15 g/ha, Example 12
  Compound A alone (% control): 0%
Alopecurus myosuroides [8]; 15 g/ha, Example 13
  Compound A alone (% control): 8%
Alopecurus myosuroides [8]; 30 g/ha, Example 4
  Compound A alone (% control): 50%
Alopecurus myosuroides [8]; 30 g/ha, Example 5
  Compound A alone (% control): 23%
Alopecurus myosuroides [8]; 30 g/ha, Example 12
  Compound A alone (% control): 10%
Alopecurus myosuroides [8]; 30 g/ha, Example 13
  Compound A alone (% control): 15%
Alopecurus myosuroides [8]; 30 g/ha, Example 14
  Compound A alone (% control): 15%
Alopecurus myosuroides [8]; 60 g/ha, Example 5
  Compound A alone (% control): 28%
Alopecurus myosuroides [8]; 60 g/ha, Example 13
  Compound A alone (% control): 43%
Alopecurus myosuroides [8]; 60 g/ha, Example 14
  Compound A alone (% control): 33%
Apera spica-venti; 3.75 g/ha, Example 1B
  Compound A alone (% control): 25%
Apera spica-venti; 3.75 g/ha, Example 7
  Compound A alone (% control): 10%
Apera spica-venti; 3.75 g/ha, Example 8
  Compound A alone (% control): 10%
Apera spica-venti; 3.75 g/ha, Example 12
  Compound A alone (% control): 0%
Apera spica-venti; 7.5 g/ha, Example 1B
  Compound A alone (% control): 35%
Apera spica-venti; 7.5 g/ha, Example 4
  Compound A alone (% control): 50%
Apera spica-venti; 7.5 g/ha, Example 10
  Compound A alone (% control): 20%
Apera spica-venti; 7.5 g/ha, Example 13
  Compound A alone (% control): 10%
Apera spica-venti; 7.5 g/ha, Example 14
  Compound A alone (% control): 5%
Apera spica-venti; 15 g/ha, Example 1B
  Compound A alone (% control): 40%
Apera spica-venti; 15 g/ha, Example 10
  Compound A alone (% control): 50%
Apera spica-venti; 15 g/ha, Example 14
  Compound A alone (% control): 10%
Apera spica-venti; 30 g/ha, Example 5
  Compound A alone (% control): 68%
Apera spica-venti; 30 g/ha, Example 12
  Compound A alone (% control): 53%
Galium aparine [9]; 3.75 g/ha, Example 5
  Compound A alone (% control): 10%
Galium aparine [9]; 3.75 g/ha, Example 10
  Compound A alone (% control): 13%
Galium aparine [9]; 3.75 g/ha, Example 14
  Compound A alone (% control): 40%
Galium aparine [9]; 7.5 g/ha, Example 5
  Compound A alone (% control): 23%
Galium aparine [9]; 15 g/ha, Example 10
  Compound A alone (% control): 20%
Galium aparine [9]; 15 g/ha, Example 12
  Compound A alone (% control): 0%
Galium aparine [9]; 30 g/ha, Example 12
  Compound A alone (% control): 20%
Galium aparine [9]; 60 g/ha, Example 10
  Compound A alone (% control): 55%
Lamium purpureum [10]; 3.75 g/ha, Example 4
  Compound A alone (% control): 20%
Lamium purpureum [10]; 3.75 g/ha, Example 7
  Compound A alone (% control): 20%
Lamium purpureum [10]; 3.75 g/ha, Example 8
  Compound A alone (% control): 20%
Lamium purpureum [10]; 3.75 g/ha, Example 12
  Compound A alone (% control): 35%
Lamium purpureum [10]; 7.5 g/ha, Example 7
  Compound A alone (% control): 35%
Lamium purpureum [10]; 7.5 g/ha, Example 8
  Compound A alone (% control): 35%
Lamium purpureum [10]; 7.5 g/ha, Example 12
  Compound A alone (% control): 55%
Lamium purpureum [10]; 15 g/ha, Example 1B
  Compound A alone (% control): 83%
Lamium purpureum [10]; 15 g/ha, Example 7
  Compound A alone (% control): 50%
Lamium purpureum [10]; 15 g/ha, Example 8
  Compound A alone (% control): 50%
Lolium perenne [11]; 3.75 g/ha, Example 1B
  Compound A alone (% control): 10%
Lolium perenne [11]; 3.75 g/ha, Example 12
  Compound A alone (% control): 0%
Lolium perenne [11]; 7.5 g/ha, Example 1B
  Compound A alone (% control): 28%
Lolium perenne [11]; 7.5 g/ha, Example 4
  Compound A alone (% control): 23%
Lolium perenne [11]; 15 g/ha, Example 1B
  Compound A alone (% control): 50%
Lolium perenne [11]; 15 g/ha, Example 5
  Compound A alone (% control): 23%
Lolium perenne [11]; 30 g/ha, Example 6
  Compound A alone (% control): 60%
Lolium perenne [11]; 30 g/ha, Example 7
  Compound A alone (% control): 65%
Lolium perenne [11]; 30 g/ha, Example 13
  Compound A alone (% control): 28%
Lolium perenne [11]; 60 g/ha, Example 7
  Compound A alone (% control): 75%
Lolium perenne [11]; 60 g/ha, Example 8
  Compound A alone (% control): 75%
Lolium perenne [11]; 60 g/ha, Example 11
  Compound A alone (% control): 40%
Lolium perenne [11]; 60 g/ha, Example 13
  Compound A alone (% control): 63%
Matricaria inodora; 3.75 g/ha, Example 10
  Compound A alone (% control): 5%
Matricaria inodora; 7.5 g/ha, Example 10
  Compound A alone (% control): 13%
Matricaria inodora; 7.5 g/ha, Example 13
  Compound A alone (% control): 15%
Matricaria inodora; 15 g/ha, Example 9
  Compound A alone (% control): 48%
Matricaria inodora; 15 g/ha, Example 10
  Compound A alone (% control): 30%
Papaver rhoeas; 3.75 g/ha
  Compound A alone (% control): 30%
Papaver rhoeas; 7.5 g/ha
  Compound A alone (% control): 65%
Setaria viridis [12]; 3.75 g/ha, Example 1B
  Compound A alone (% control): 0%
Setaria viridis [12]; 3.75 g/ha, Example 4
  Compound A alone (% control): 15%
Setaria viridis [12]; 3.75 g/ha, Example 5
  Compound A alone (% control): 0%
Setaria viridis [12]; 3.75 g/ha, Example 9
  Compound A alone (% control): 0%
Setaria viridis [12]; 3.75 g/ha, Example 10
  Compound A alone (% control): 4%
Setaria viridis [12]; 3.75 g/ha, Example 14
  Compound A alone (% control): 0%
Setaria viridis [12]; 7.5 g/ha, Example 1B
  Compound A alone (% control): 23%
Setaria viridis [12]; 7.5 g/ha, Example 5
  Compound A alone (% control): 8%
Setaria viridis [12]; 7.5 g/ha, Example 9
  Compound A alone (% control): 5%
Setaria viridis [12]; 7.5 g/ha, Example 10
  Compound A alone (% control): 15%
Setaria viridis [12]; 15 g/ha, Example 1B
  Compound A alone (% control): 55%
Setaria viridis [12]; 15 g/ha, Example 5
  Compound A alone (% control): 58%
Stellaria media [13]; 3.75 g/ha, Example 1B
  Compound A alone (% control): 10%
Stellaria media [13]; 3.75 g/ha, Example 4
  Compound A alone (% control): 28%
Stellaria media [13]; 7.5 g/ha, Example 1B
  Compound A alone (% control): 18%
Stellaria media [13]; 7.5 g/ha, Example 13
  Compound A alone (% control): 30%
Stellaria media [13]; 15 g/ha, Example 1B
  Compound A alone (% control): 45%
Stellaria media [13]; 15 g/ha, Example 9
  Compound A alone (% control): 70%
Stellaria media [13]; 30 g/ha, Example 1B
  Compound A alone (% control): 70%
Veronica persica [14]
  Compound A alone (% control): 80%
